Source: patent US5462861A, “Method for improving enzyme activities with noble gases” (American Air Liquide, Chicago Research Center, priority 1993, dated 1995)
“Also recorded” adds a separate entry of the source.

Key:
Tyrosinase [1] = experiment: Tyrosinase-L-tyrosine reaction, solution saturated with gas; format: biochemical, Mushroom; conditions: for temperature dependence of the effect on tyrosinase: various temperatures (15-35° C.); for effect on rate and final equilibrium of the tyrosinase-L-tyrosine reaction: various temperatures
Procedure: (§1) Solution preparation: Optimized w/v solutions are prepared by diluting the enzyme (units/ml) and the substrate (μg/ml) in appropriate buffer (optimized pH and molarity for enzymes). The solutions are used for gas experiments at once to avoid loss of activity. Various enzyme and substrate concentrations and inhibitors may be employed. Physical parameters are varied as required.
(§2) Preparation of samples: Cuvets are filled with 2 ml of substrate solution by means of a gas-tight syringe. Gas-tight serum vials are filled with enzyme and solvent. Sufficient gas is consecutively bubbled in the cuvets and serum vials, with a 1-hr wait between injections to maximize equilibration of gas. All syringes and dead spaces are purged before filling with the appropriate gas. The amount of gas used has been measured sufficient to saturate the solution required.
(§3) Spectrophotometric time-drive, reaction rate, and kinetic analyses: cuvets and serum vials are saturated with gas 40 minutes before the run. A gas-filled syringe is used to retrieve 0.5 ml of enzyme solution to avoid air contact. The 0.5 ml syringe injections of enzyme are made simultaneously to effect a common starting time to for the samples. 7 gases (air, O2, N2, Ne, Ar, Kr, Xe) are run at various temperatures each (from 0° to 60° ). Changes in the rate or final equilibrium of the reaction versus ambient air are recorded. Comparison is also made with added oxygen, and with deoxygenation. Some samples are also prepared under pressure.
1. Solution preparation: 10% w/v solutions are prepared by diluting the enzyme (units/ml) and the substrate (μg/ml) in Sodium Phosphate buffer (pH 6.85, optimized pH for enzymes). The solutions are stored in refrigerator (0°-5° C.) and used for gas experiments within 2 or 3 days to avoid loss of activity.
6. Preparation of run samples: Acrylic cuvets are filled with 2 ml of substrate solution by means of a gas tight syringe. Gastight serum vials are filled with enzyme. 3×10 cc of gas are consecutively bubbled in the cuvets and serum vials, with a […] between injections. This represents a 10× displacement of dead volume while maximizing equilibration of gas. All syringes and dead spaces are purged before filling with the appropriate gas. After the third 10 cc injection, the cuvets and serum vials are left overnight under two 10 cc syringes filled with the appropriate gas in refrigerator at 0°-5° C.
8. Spectrophotometric runs: The cuvets and serum vials are filled with 10 cc of gas 40 min before the run. A gas-filled syringe is used to retrieve 0.5 ml of enzyme solution to avoid air contact. The 0.5 ml syringe injections of enzyme are made simultaneously to effect a common starting time t0 for the samples. Seven gases (air, O2, N2, Ne, Ar, Kr, Xe) are run at five temperatures each (15° C., 20° C., 25° C., 30° C., 35° C.). Changes in the rate or final equilibrium of the reaction versus ambient air are recorded.
The optimal conditions are [E]/[S] (100 μg/ml)/(100 μg/ml), the changes in absorbance being observed at 305 nm.
3×10 cc of gas are bubbled in the silicone-sealed cuvets and serum vials (T-3754, T-7755), with an interval of 20 min (at 0°-5°C.) between each gas injection.
a. The silicone-sealed cuvets are removed from the refrigerator 40 min before the experimental run, filled with 10 cc of gas and left at room temperature (26° C.) under two 10 cc syringes.
The 0.5 ml syringe injections of enzyme are made simultaneously to effect a common starting time t0 for the samples.
200 points, 18 s intervals 1 hr run

Glucose oxidase = Glucose oxidase (Aspergillus niger, UniProt P13006); experiment: Glucose oxidase activity under gas; format: biochemical
Procedure: as §1, §2, §3

tyrosinase [2] = experiment: Oxygen addition experiment, tyrosinase; format: biochemical
Procedure: (§4) In a complete experiment, an enzyme at optimal pH and buffering salt concentration is reacted with 5 substrate concentrations in solution with noble gas at 1 atm. […] Controls are also run after evacuation of solution by vacuum. The reaction is monitored colorimetrically in a scanning spectrophotometer in real time, and the signals are treated mathematically to obtain rate and yield differences. Sample numbers are constant and sufficient to ensure significance of results. All parameters are independently controlled and measured, and more complex experiments are occasionally carried out.

Acetyl S-CoA synthetase = Acetyl S-CoA synthetase activity under gas (coupled sequence or isolated reaction); format: biochemical; conditions: depending upon temperature
Procedure: as §1, §2, §3
Maximum observed enhancement vs maximum observed inhibition (depending upon temperature):
In a coupled complex reaction sequence including hydrolytic enzymes: […]

[3] = target: Triosephosphate isomerase (Homo sapiens, UniProt P60174); experiment: Triosephosphate isomerase activity under gas; format: biochemical; conditions: 10° C.; plus = enhancement
Procedure: as §1, §2, §3, §4

[4] = target: Gamma-glutamyl transpeptidase (Homo sapiens, UniProt P19440); experiment: Gamma-glutamyl transpeptidase activity under gas; format: biochemical
Procedure: as §1, §2, §3, §4

Beta-D-glucosidase = Beta-D-glucosidase activity under gas; format: biochemical
Procedure: as §1, §2, §3, §4

α-D-glucosidase = α-D-glucosidase activity under gas; format: biochemical; conditions: 60° C., FIG. 43
Procedure: Solution preparation: Optimized w/v solutions are prepared by diluting the enzyme (units/ml) and the substrate (μg/ml) in appropriate buffer (optimized pH and molarity for enzymes). The solutions are used for gas experiments at once to avoid loss of activity. Various enzyme and substrate concentrations and inhibitors may be employed. Physical parameters are varied as required. […] Gas-tight serum vials are filled with enzyme and solvent. Sufficient gas is consecutively bubbled in the cuvets and serum vials, with a 1-hr wait between injections to maximize equilibration of gas. All syringes and dead spaces are purged before filling with the appropriate gas. The amount of gas used has been measured sufficient to saturate the solution required. Spectrophotometric time-drive, reaction rate, and kinetic analyses: cuvets and serum vials are saturated with gas 40 minutes before the run. A gas-filled syringe is used to retrieve 0.5 ml of enzyme solution to avoid air contact. […] Changes in the rate or final equilibrium of the reaction versus ambient air are recorded. Comparison is also made with added oxygen, and with deoxygenation. Some samples are also prepared under pressure.

oxidoreductase enzymes = experiment: Oxidoreductases, effects for the class; format: biochemical
Procedure: as §1, §2, §3, §4

Phosphoglucose isomerase = Phosphoglucose isomerase (Homo sapiens, UniProt P06744); experiment: Phosphoglucose isomerase activity under gas; format: biochemical
Procedure: as §1, §2, §3, §4

[5] = coupled complex reaction sequence including hydrolytic enzymes

Gamma-glutamyl transpeptidase, sequence (P19440 1-380 limits assumed): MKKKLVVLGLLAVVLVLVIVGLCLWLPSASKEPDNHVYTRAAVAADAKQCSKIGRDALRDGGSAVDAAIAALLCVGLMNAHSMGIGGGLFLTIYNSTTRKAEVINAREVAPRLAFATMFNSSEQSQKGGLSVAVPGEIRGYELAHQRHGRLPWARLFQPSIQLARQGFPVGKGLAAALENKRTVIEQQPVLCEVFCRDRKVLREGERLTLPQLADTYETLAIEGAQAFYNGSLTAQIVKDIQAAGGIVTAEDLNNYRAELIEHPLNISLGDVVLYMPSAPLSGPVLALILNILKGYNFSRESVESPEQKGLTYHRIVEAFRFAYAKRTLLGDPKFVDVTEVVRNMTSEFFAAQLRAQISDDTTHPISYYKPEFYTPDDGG
Glucose oxidase, sequence (P13006 17-605): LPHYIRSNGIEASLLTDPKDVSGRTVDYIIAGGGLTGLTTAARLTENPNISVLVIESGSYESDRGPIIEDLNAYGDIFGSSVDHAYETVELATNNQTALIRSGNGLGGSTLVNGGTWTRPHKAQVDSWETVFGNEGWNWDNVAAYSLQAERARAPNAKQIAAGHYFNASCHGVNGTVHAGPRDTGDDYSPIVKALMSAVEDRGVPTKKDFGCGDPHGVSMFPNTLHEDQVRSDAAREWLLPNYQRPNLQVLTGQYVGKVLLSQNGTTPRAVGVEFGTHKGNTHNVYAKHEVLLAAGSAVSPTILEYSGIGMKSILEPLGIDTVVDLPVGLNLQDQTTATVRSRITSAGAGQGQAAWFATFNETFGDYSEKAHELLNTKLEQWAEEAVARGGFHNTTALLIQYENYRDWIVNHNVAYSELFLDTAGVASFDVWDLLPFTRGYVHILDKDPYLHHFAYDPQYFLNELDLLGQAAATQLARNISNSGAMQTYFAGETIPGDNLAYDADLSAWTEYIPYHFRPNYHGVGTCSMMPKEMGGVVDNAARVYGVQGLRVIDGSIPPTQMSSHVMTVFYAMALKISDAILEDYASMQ
Triosephosphate isomerase, sequence (P60174 2-249 limits assumed, species assumed): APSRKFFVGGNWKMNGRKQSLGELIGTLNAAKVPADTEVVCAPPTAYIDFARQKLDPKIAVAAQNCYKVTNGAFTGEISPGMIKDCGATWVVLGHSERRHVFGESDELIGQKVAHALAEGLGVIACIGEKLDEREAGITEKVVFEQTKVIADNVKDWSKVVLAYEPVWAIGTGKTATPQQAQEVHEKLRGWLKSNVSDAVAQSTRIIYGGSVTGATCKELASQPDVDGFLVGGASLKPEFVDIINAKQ

`[Xe]` [Xe, xenon] was tested, and the “effect on tyrosinase-L-tyrosine reaction” value (Tyrosinase [1]; 15° C.) was “small, but significant inhibitory effect; also recorded: small but significant inhibitory effect”, the “effect on tyrosinase-L-tyrosine reaction” value (Tyrosinase [1]; 20° C.) was “inhibits the tyrosinase-L-tyrosine reaction quite strongly; also recorded: dramatically inhibit; also recorded: inhibiting effects” and the “effect on tyrosinase-L-tyrosine reaction” value (Tyrosinase [1]; 25° C.) was “inhibitory effect”. The effect (Tyrosinase [1]; 25° C., optimal reaction conditions, simple saturation of solution with gas, minus = inhibition) was -73%, the effect on tyrosinase (Tyrosinase [1]; 26° C.) was “very large inhibition; also recorded: optimal inhibition curve” and the “area of run curve” value (Tyrosinase [1]; 26° C., FIG. 6) was about 3037 μ. The “inhibition of air rate” value (Tyrosinase [1]; 26° C., FIG. 6, estimated from curve areas) was about 72.92%, the “total area as % of air area” value (Tyrosinase [1]; 26° C., FIG. 6, 60 min) was about 27.08% and the “% total area” value (Tyrosinase [1]; 26° C., FIG. 6, total = air + xenon areas) was about 21.31. For the same molecule, the “effect on tyrosinase-L-tyrosine reaction” value (Tyrosinase [1]; 30° C., listed as Xenon) was “inhibits the reaction much better than other gases”, the “effect on tyrosinase-L-tyrosine reaction” value (Tyrosinase [1]; 30° C., listed as xenon) was “inhibitory effect” and the effect on tyrosinase (Tyrosinase [1]; equal w/w, FIG. 5) was “inhibition”. The “temperature dependence of the effect on tyrosinase” value (Tyrosinase [1]; listed as Xenon) was “interacts inversely with temperature”, the “temperature dependence of the effect on tyrosinase” value (Tyrosinase [1]; listed as xenon) was “at least two activity transitions; also recorded: large difference in xenon activity between 20 °C and 25 °C; also recorded: interacts inversely with temperature; also recorded: large difference in xenon activity between 20° and 25 °C” and the “effect on rate and final equilibrium of the tyrosinase-L-tyrosine reaction” value (Tyrosinase [1]; listed as Xenon) was “significantly inhibits the rate and depresses the final equilibrium”. For the same molecule, the “effect on rate and final equilibrium of the tyrosinase-L-tyrosine reaction” value (Tyrosinase [1]; listed as xenon) was “inhibits the equilibrium of the tyrosinase-L-tyrosine reaction better than other gases; also recorded: inhibition”, the “effect on glucose oxidase” value (Glucose oxidase; FIG. 28) was “inhibition” and the effect (Glucose oxidase; minus = inhibition, dependent upon temperature and substrate concentration) was -91.6%. For the same molecule, the inhibition (tyrosinase [2]; after addition of oxygen up to a saturating amount to the gas-saturated solution) was 50%, the inhibition (tyrosinase [2]; gas-saturated solution before addition of oxygen) was 85% and the Maximum observed enhancement (Acetyl S-CoA synthetase; [5]) was “+18.3%”. The maximum observed inhibition (Acetyl S-CoA synthetase; [5]) was -25.0%, the Maximum observed enhancement (Acetyl S-CoA synthetase; isolated reaction) was “+15.4%” and the maximum observed inhibition (Acetyl S-CoA synthetase; isolated reaction) was -39.5%. For the same molecule, the effect [3] was “+24%”, the “effect on α-glutamyltranspeptidase” value ([4]; FIG. 29) was “inhibition” and the effect ([4]; minus = inhibition) was -7%. For the same molecule, the effect (Beta-D-glucosidase; plus = enhancement) was “+40%”, the enhancement (Beta-D-glucosidase; with the addition of different competing substrates) was “up to 200%” and the “effect on α-glucosidase activity” value (α-D-glucosidase) was “enhanced”. For the same molecule, the “effect on oxidoreductase reactions” value (oxidoreductase enzymes) was “largest effect on the rate”, the “Maxima for class: effect” value (oxidoreductase enzymes; Class I oxidoreductases, minus = inhibition) was -95% and the “effect on phosphoglucose isomerase” value (Phosphoglucose isomerase; 10° C., FIG. 34) was “enhancement”. For the same molecule, the effect (Phosphoglucose isomerase; phosphoglucose isomerase) was “+186%” and the “effect, stressed” value (Phosphoglucose isomerase; stressed = nonoptimal substrate concentration or temperature) was -61%.
